Results on one molecule are retold here after patent US11932606B2, “Anti-cancer/anti-fibrosis compounds” (THE REGENTS OF THE UNIVERSITY OF CALIFORNIA, priority 2017, dated 2024).

Read-outs that look alike come from different tables or passages of the source.

One data set deals with MOLM-14 xenograft. The experiment in a line: MOLM-14 mouse xenograft model. Conditions: 50 mg/kg orally b.i.d. The format is in vivo. How it is done: 40 athymic nude mice (Taconic Biosciences) were injected with 5×10^6 MOLM-14 cells in 50% matrigel s.c. in flank. Cell Injection Volume is 0.2 ml/mouse for MOLM-14. Age of mice at start date is 12-14 weeks. Perform a pair match when tumors grows after two weeks and begin treatment. Compound 29 was dissolved in saline and was given orally twice a day on a schedule of five days on/two days off for three weeks. Body weight and tumor size were measured every other day when mice being treated. After the last administration, mice were euthanized for tumor collection. […] In the MOLM-14 xenograft model, mice were treated with compound 29 at 50 mg/kg for 21 days (orally, b.i.d). The tumor volume from control and vehicle group was measured. […] Body weights of mice in both groups were measured and plotted.

In another data set the test system is MV-4-11 xenograft. The experiment in a line: MV-4-11 mouse xenograft model. The format is in vivo. Conditions: 50 mg/kg orally b.i.d., 21 days. The method, then:
40 CR female NCr nu/nu mice (Charles River Laboratories) were injected with 1×10^7 MV-4-11 cells in 50% matrigel s.c. in flank. Cell Injection Volume is 0.1 mL/mouse for MV-4-11 cells. Age of mice at start date is 8 to 12 weeks. Perform a pair match when tumors grow after two weeks and begin treatment. Compound 29 was given orally twice a day for 21 consecutive days. Body weight and tumor size were measured every three days. In the MV-4-11 xenograft model, mice were treated with compound 29 with 50 mg/kg for 21 days (orally, b.i.d). The tumor volume from control and vehicle group were measured, compared. […] Body weights of mice in both groups were measured and plotted.

The target in another data set is CSNK2A1 (CK2 alpha 1) (Homo sapiens (Human), UniProt P68400). The data set can be described thus: CK2 alpha 1 enzymatic activity inhibition (Z'-LYTE). The format is biochemical. Conditions: read-out: CK2a IC50. How it is done: CK2 Alpha 1 Enzymatic Activity Inhibition: Determination of IC50 Values for Selected Compounds
The half maximal inhibitory concentration (IC50) with respect to CK2 alpha 1 inhibition was determined for the compounds of the invention by using Z′-LYTE™ from ThermoFisher Scientific's SelectScreen™ Biochemical Kinase Profiling Service (Waltham, MA). Compounds were screened in 1% DMSO (final) in the well. For 10 point titrations, 3-fold serial dilutions were conducted from the starting concentration. The 2×CSNK2A1 (CK2 alpha 1)/Ser/Thr 11 mixture is prepared in 50 mM HEPES pH 7.5, 0.01% BRIJ-35, 10 mM MgCl2, 1 mM EGTA. The black 384-well plate (Corning Cat. #4514) were used for the assay. 100 nL of 100× test compound in 100% DMSO, 2.4 uL of kinase buffer (50 mM HEPES pH 7.5, 0.01% BRIJ-35, 10 mM MgCl2, 1 mM EGTA), 5 uL of 2×CSNK2A1 (CK2 alpha 1)/Ser/Thr 11 mixture, and 2.5 uL of 4×ATP solution were mixed and agitated for 30 seconds. Then the Kinase Reaction was incubated at room temperature for 60 minutes. The final 10 uL Kinase Reaction consisted of 0.68-25.7 ng CSNK2A1 (CK2 alpha 1) and 2 μM Ser/Thr 11 in 50 mM HEPES pH 7.5, 0.01% BRIJ-35, 10 mM MgCl2, 1 mM EGTA. After the 1 hour Kinase Reaction incubation, 5 uL of a 1:16 dilution of Development Reagent B is added. After 30 second of plate shake, the reaction plate was incubated for another 60 min at room temperature. Then the plate was read on a fluorescence plate reader (CLARIOstar, BMG Labtech, Germany) and data was analyzed using XLfit from IDBS. The dose response curve was curve fit to model number 205 (sigmoidal dose-response model).

The subject of a further data set is MOLM-14 xenograft tumors. The data set can be described thus: Western analysis / pharmacodynamics of MOLM-14 xenograft tumors. The format is in vivo, mouse. The method, then:
For tissue: Tissue was homogenized and protein was extracted using T-per Mammalian protein extraction reagent (78510, Thermo Fisher Scientific). In the pharmacodynamics study, mice bearing tumors were treated with vehicle, 10 mg/kg, 50 mg/kg and 100 mg/kg for 6 hrs. After 6 hrs of treatment, tumors were removed for further procedure.
Proteins were separated on SDS-PAGE and transferred to nitrocellulose membrane. Immunoblotting were performed using specific antibodies: phosphor-Stat1-pS727 (8826, Cell signaling), total-Stat1 (14994, Cell signaling), Phospho-Stat3 (Tyr705) (9131, Cell signaling), Stat3 (9139, Cell signaling), pSTAT5-pS726 (ab128896, abcam), stat5 (94205, cell signaling), YAP (14074, Cell signaling), CYR61(14479, Cell signaling), CTGF (ab6992, Abcam), c-Myc (13987, Cell signaling), Mcl-1 (94296, Cell signaling) and GAPDH (AM4300, Invitrogen). (FIG. 1A, FIG. 1B, FIG. 1C). MV-4-11 cancer cell line was treated with compound 29 at various concentrations (30 nM up to 10 μM) for 24 hours and 48 hours, respectively.
Tumors from the MOLM-14 xenograft study were collected and processed for western analysis. In the western results showing above, the level of p-STAT1 (Ser727) in the three mice samples from the treated group were much lower compared to that in the three mice samples from the control group.

A further data set deals with CDK19 (inactive) (Homo sapiens (Human), UniProt Q9BWU1). The experiment in a line: CDK19 (inactive) LanthaScreen Eu kinase binding assay. Conditions: read-out: IC50 against CDK19. The method, then:
Compounds were screened in 1% DMSO (final) in the well. For 10 point titrations, 3-fold serial dilutions were conducted from the starting concentration.
The Bar-coded, low volume, white 384-well plate (Greiner Cat. #784207) were used for the assay. […] Then the Kinase Reaction was incubated at room temperature for 60 minutes. After the 1 hour Kinase Reaction incubation, the plate was read on a fluorescence plate reader (Infinite F500, Tecan Systems Inc, USA) and data was analyzed using XLfit from IDBS. The dose response curve was curve fit to model number 205 (sigmoidal dose-response model).
A general note: Time-resolved FRET reads energy transfer from a long-lived donor to a nearby acceptor.

Data set [1] relates to colorectal cancer cell line SW620. The experiment in a line: Synergy experiment of Compound 29 and 2DG, cell viability. The format is cell-based. The method, then:
SW620 cells were plated (96-well) in triplicate at 500 cells per well for testing (n=3) with 5 mM 2-DG and different concentrations of compound 29 (0-10 uM). Medium was changed once on day 3. On day 7, the CellTiter-Glo Luminescent Cell Viability Assay (Promega) was performed to measure the response. For cell viability assay, two independent experiments have been done.

In a further data set the test system is SET-2. The experiment in a line: AML cell viability (CellTiter-Glo, day 7). The format is cell-based. Conditions: Homo sapiens. Background: Cellular ATP, detected with luciferase, serves as a proxy for viable cell number.
[2] abbreviates: tumors from MOLM-14 xenograft study, Western.

CSNK2A1 (CK2 alpha 1), sequence (P68400 whole entry): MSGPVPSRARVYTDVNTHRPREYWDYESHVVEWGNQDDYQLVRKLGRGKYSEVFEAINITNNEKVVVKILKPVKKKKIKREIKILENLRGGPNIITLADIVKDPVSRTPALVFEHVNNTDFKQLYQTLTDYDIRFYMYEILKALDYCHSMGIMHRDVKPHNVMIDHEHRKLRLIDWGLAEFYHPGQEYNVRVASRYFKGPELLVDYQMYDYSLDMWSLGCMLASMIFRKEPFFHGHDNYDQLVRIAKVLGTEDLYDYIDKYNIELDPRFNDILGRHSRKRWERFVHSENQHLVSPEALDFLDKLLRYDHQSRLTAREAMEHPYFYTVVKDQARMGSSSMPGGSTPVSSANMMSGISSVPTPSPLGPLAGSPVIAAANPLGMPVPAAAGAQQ
CDK19 (inactive), sequence (Q9BWU1 whole entry): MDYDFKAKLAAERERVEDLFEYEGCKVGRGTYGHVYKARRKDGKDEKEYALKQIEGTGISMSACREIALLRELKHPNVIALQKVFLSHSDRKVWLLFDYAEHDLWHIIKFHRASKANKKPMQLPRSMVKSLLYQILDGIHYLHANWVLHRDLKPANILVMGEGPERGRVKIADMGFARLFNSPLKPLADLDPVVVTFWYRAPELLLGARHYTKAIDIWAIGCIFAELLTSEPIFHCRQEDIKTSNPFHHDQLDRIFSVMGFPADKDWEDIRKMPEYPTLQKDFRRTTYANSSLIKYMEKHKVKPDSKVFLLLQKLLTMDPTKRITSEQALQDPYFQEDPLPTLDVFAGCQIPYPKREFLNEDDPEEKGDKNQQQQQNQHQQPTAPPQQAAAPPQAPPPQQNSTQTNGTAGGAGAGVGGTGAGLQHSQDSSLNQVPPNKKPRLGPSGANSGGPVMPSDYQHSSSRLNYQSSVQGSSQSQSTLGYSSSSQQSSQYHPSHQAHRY

Consider `Nc1nccc2c(Br)cc3cc(C(=O)[O-])ccc3c12.[Na+]` [Compound 29, Sodium 1-amino-5-bromobenzo[h]isoquinoline-8-carboxylate], for which the “Growth of tumors (tumor volume)” value in the data set with MOLM-14 xenograft (21 days) is “greatly inhibited”. Also, in the data set on MOLM-14 xenograft (during treatment), the weight loss is < 5%. Besides, in the data set with MV-4-11 xenograft, the Body weight entry is “didn't suffer from weight loss”. The “Tumor volume vs control group” value with MV-4-11 xenograft (last measurement point) is reported as “only about half the size of tumors from the control group”. The IC50 was < 300 nM on CSNK2A1 (CK2 alpha 1); < 300 nM at CDK19 (inactive); 1000 to 10000 nM in data set [1] (Homo sapiens, SW-620, 168 h, SW620, without 2DG, day 7, read-out: Cell viability IC50 of Compound 29 alone); < 1000 nM in the data set on SET-2 (168 h, SET-2, day 7, read-out: Cell viability IC50); < 1000 nM with SET-2 (SET-2, text statement, read-out: potency in cell viability assay). Moreover, the “p-STAT1 (Ser727) in tumors, pharmacodynamics study” value in the data set with MOLM-14 xenograft tumors (10 mg/kg, 50 mg/kg and 100 mg/kg, 6 hrs) was “a dose response (10 mg/kg, 50 mg/kg and 100 mg/kg) of down regulation”. The “level of p-STAT1 (Ser727) in tumors vs control group” value in the data set with MOLM-14 xenograft tumors (setting [2]) is recorded as “much lower”. In addition, the “level of p-STAT5(Ser726) in tumors vs control group” value with MOLM-14 xenograft tumors (setting [2]) is “lower level”. In addition, the “Synergy with 2DG in viability assay” value in data set [1] (SW620, 5 mM 2DG) is recorded as “synergizes with 2DG”.
